Measured values taken from PMC8010149, “A Therapeutic Strategy to Combat HIV-1 Latently Infected Cells With a Combination of Latency-Reversing Agents Containing DAG-Lactone PKC Activators” (Frontiers in Microbiology, 2021).

How the values were obtained:
[1] = Cytotoxicity of LRAs in A3.01 cells; assay type: cell-based; settings: human, day 7
Description: (§1) To determine the cytotoxicity of LRAs, A3.01, and U937 cells (5 × 10^5 cells/ml), which are the parental cells for ACH-2 and U1 cells, respectively, were cultured in the presence or absence of LRAs. After 7 days, cell viability was examined using the Cell Counting Kit-8 assay (Dojindo, Kumamoto, Japan) according to the manufacturer’s instructions. The numbers of living cells after drug treatment were measured and compared to those in untreated cells and are presented as a percentage relative to the control.

[2] = Cytotoxicity of LRAs in U937 cells; assay type: cell-based; settings: human, day 7
Description: as §1

[3] = tested on: HIV-1 latently infected ACH-2 cells; assay: HIV-1 latency reversal, p24 antigen in supernatant, ACH-2 cells; assay type: cell-based; settings: Human immunodeficiency virus 1, ACH-2, 48 h
Description: (§2) The reactivation of HIV-1 from latently infected cells was determined by intracellular p24 protein expression and quantification of p24 antigen in the supernatant (ACH-2 and U1 cells), or by changes in intracellular green fluorescent protein (GFP) expression (J-Lat 10.6 cells). J-Lat ([Jordan et al., 2003]), ACH-2, or U1 cells (5 × 10^5 cells/ml) were seeded in 96-well plates and incubated with different drug concentrations for 24 h to collect the cells. The supernatant was collected after 48 h. The increase in supernatant p24 antigen levels was measured using a Lumipulse G1200 (FUJIREBIO, Tokyo, Japan). J-Lat cells (5 × 10^5 cells/ml) were placed in 48-well plates and incubated with different drug concentrations for 24 h. Intracellular p24 protein expression and GFP-positive cells were analyzed by flow cytometry.

[4] = tested on: HIV-1 latently infected U1 cells; assay: HIV-1 latency reversal, p24 antigen in supernatant, U1 cells; assay type: cell-based; settings: Human immunodeficiency virus 1, 48 h
Description: as §2

[5] = tested on: HIV-1 latently infected ACH-2 cells; assay: Intracellular HIV-1 p24 by flow cytometry in ACH-2 cells; assay type: cell-based
Description: as §2
(§3) The amount of intracellular HIV-1 p24 and the active form of caspase-3 were determined by flow cytometry, as previously described ([Matsuda et al., 2015], [2019]). In brief, ACH-2 and U1 cells (2.5 × 10^5 cells/ml) were fixed with 1% paraformaldehyde/PBS for 20 min and permeabilized with Flow Cytometry Perm Buffer (TONBO Biosciences, San Diego, CA, United States). After 5 min of incubation at room temperature, the cells were stained with FITC anti-HIV-1 p24 (24-4) monoclonal antibody (mAb; Santa Cruz Biotechnology, Dallas, TX, United States) or Alexa Fluor 647-conjugated anti-active caspase-3 (C92-605) mAb (BD Pharmingen, San Diego, CA, United States) for 30 min on ice. For T cell activation and exhaustion marker staining, PBMCs from healthy donors separated by the above density gradient centrifugation method were incubated with fixable viability stain Ghost Dye 780 (TONBO Biosciences) for 30 min on ice. The cells were then stained with Brilliant Violet 510 anti-human CD3 (UCHT1) mAb (BioLegend), FITC anti-human CD4 (RPA-T4) mAb (TONBO Biosciences), PE-Cy7 anti-human CD8a (RPA-T8) mAb (TONBO Biosciences), PerCP-Cy5.5 anti-human CD38 (HB-7) mAb (BioLegend), PE anti-human CD69 (FN50) mAb (BioLegend), or Alexa Fluor 647 anti-human CD279/PD-1 (EH12.1) mAb (BD Biosciences, San Jose, CA, United States) for 30 min on ice. Next, the cells were analyzed using BD FACSVerse (BD Biosciences). In the analysis, unstained cells were used as a negative control to set the gating for each experiment. The collected data were analyzed using FlowJo software (Tree Star, San Carlos, CA, United States).

[6] = tested on: HIV-1 latently infected U1 cells; assay: Intracellular HIV-1 p24 by flow cytometry in U1 cells; assay type: cell-based
Description: as §2, §3

J-Lat 10.6 cells = assay type: cell-based, HIV-1; settings: J-Lat 10.6 cells, 24 h
Description: The reactivation of HIV-1 from latently infected cells was determined by intracellular p24 protein expression and quantification of p24 antigen in the supernatant (ACH-2 and U1 cells), or by changes in intracellular green fluorescent protein (GFP) expression (J-Lat 10.6 cells). […] The supernatant was collected after 48 h. The increase in supernatant p24 antigen levels was measured using a Lumipulse G1200 (FUJIREBIO, Tokyo, Japan). […] Intracellular p24 protein expression and GFP-positive cells were analyzed by flow cytometry.
Differences between groups were analyzed for statistical significance using unpaired t-tests. Statistical significance was set at p < 0.05. Statistical analyses were performed using GraphPad Prism version 8 (GraphPad Software, La Jolla, CA, United States). CompuSyn software, based on the quantitative analysis of dose-effect relationships between multiple drugs by Chou and Talalay, was utilized to determine the synergism or antagonism of drug combinations ([Chou and Talalay, 1984]). To confirm synergy, this software calculates combination index (CI) values, which further assist in determining the nature of the combination compared to single drug effects. A CI value <1 indicates synergistic effects.

[7] = tested on: HIV-1 in CD4+ T cells from HIV-1-infected individuals; assay: Ex vivo reactivation, intracellular HIV-1 mRNA in primary CD4+ T cells from HIV-1-infected individuals; assay type: cell-based; settings: 1 μM JQ1, 24 h, seven individuals
Description: Primary cells were isolated from seven HIV-1^+ individuals, and ex vivo reactivation experiments were conducted as previously described ([Matsuda et al., 2019]). In brief, peripheral blood samples were collected from HIV-1-infected participants receiving cART for at least 5 years (Table 1). All subjects maintained a low viral load (<20 copies/ml, except for occasional “blips”) during therapy. CD4^+ T cell counts in peripheral blood samples ranged from 477 to 992 cells/mm^3 (average: 631 cells/mm^3), and plasma viral loads were <20 copies/ml (except for one participant whose viral load was 22 copies/ml) as measured by quantitative PCR (qPCR; COBAS AmpliPrep/COBAS TaqMan HIV-1 Test version 2.0; Roche Diagnostics, Basel, Switzerland) at the time of study enrollment. The Ethics Committee at the National Center for Global Health and Medicine approved this study (NCGM-G-002259-00), and each patient provided written informed consent. […] The number of HIV-1 RNA copies was calculated using a standard curve obtained from serially diluted HIV-1pNL4-3 plasmid, and normalized values [HIV-1 RNA copies/input RNA (ng)] for each drug were compared to those without drug treatment. The relative increase in HIV-1 RNA levels in the presence of each drug or combination was then determined.

BALB/c mice = assay: In vivo acute toxicity (24 h) in BALB/c mice
Excerpt: BALB/c mice were purchased from Charles River Laboratories Japan, Inc. (Yokohama, Japan). Female mice at 5 weeks of age were used for the experiments. The mice were housed and monitored in our animal research facility according to the institutional guidelines. All experimental procedures and protocols were approved by the Institutional Animal Care and Use Committee of Kumamoto University.

[8] = tested on: CD8+PD1+CD38+ primary T cells; assay: Immune exhaustion markers, CD8+PD1+CD38+ primary T cells; assay type: cell-based, human; settings: PBMCs from healthy donors, 24 h
Description: as §3

U1 cells = assay: Active caspase-3 by flow cytometry in U1 cells; assay type: cell-based; settings: 10 µM, 24 h
Description: as §3, with “The cells were then stained with Brilliant Violet 510 anti-human CD3 (UCHT1) mAb (BioLegend), FITC anti-human CD4 (RPA-T4) mAb (TONBO Biosciences), PE-Cy7 anti-human CD8a (RPA-T8) mAb (TONBO Biosciences), PerCP-Cy5.5 anti-human CD38 (HB-7) mAb (BioLegend), PE anti-human CD69 (FN50) mAb (BioLegend), or Alexa Fluor 647 anti-human CD279/PD-1 (EH12.1) mAb (BD Biosciences, San Jose, CA, United States) for 30 min on ice.” left out, “In the analysis, unstained cells were used as a negative control to set the gating for each experiment.” left out

U937 cells = assay: Active caspase-3 by flow cytometry in U937 cells; assay type: cell-based; settings: 10 μM, 24 h
[9] = PMA control, concentration not given

Structure (SMILES) | CC50 at 7 days [1] [µM] | CC50 at 7 days [2] [µM] | EC50 [3] [µM] | EC50 [4] [µM] | intracellular p24-positive live cells (flow cytometry quadrant) ([5]; 0.1 µM, 24 h) | intracellular p24-positive live cells (flow cytometry quadrant) ([5]; 1 µM, 24 h) | intracellular p24-positive live cells (flow cytometry quadrant) ([5]; 10 µM, 24 h) | intracellular p24-positive live cells (flow cytometry quadrant) ([6]; 0.1 µM, 24 h) | intracellular p24-positive live cells (flow cytometry quadrant) ([6]; 1 µM, 24 h) | intracellular p24-positive live cells (flow cytometry quadrant) ([6]; 10 µM, 24 h) | increase in CD8+ PD1+ CD38+ T cells [8] | also measured
CCCCCCCCCC(=O)OCC1(CO)CC(=C(C)C)C(=O)O1 (centres unmarked) [HTA14-472] | > 100 | > 100 | > 10 | > 10 | 0.714 | 0.526 | 17.4 | 0.28 | 0.262 | 2.98 |  | 
Cc1sc2c(c1C)C(c1ccc(Cl)cc1)=N[C@@H](CC(=O)OC(C)(C)C)c1nnc(C)n1-2 [JQ1, reference compound] |  |  |  |  |  |  |  |  |  |  |  | number of GFP+ cells (J-Lat 10.6 cells; 100–400 nM): 12.6%; HIV-1 mRNA compared to no drug control [7]: 2.25 fold
C/C=C(/C)C(=O)O[C@H]1C(C)=C[C@]23C(=O)[C@@H](C=C(CO)[C@@H](O)[C@]12O)[C@H]1[C@@H](C[C@H]3C)C1(C)C [PEP005] |  |  |  |  |  |  |  |  |  |  | significant increase | concentration at which acute toxicity started (BALB/c mice; intraperitoneal): 300 µg/kg; survival (BALB/c mice; intraperitoneal, 1,000 μg/kg): all tested mice died
CCCCCCCCCCCCCC(=O)O[C@@H]1[C@@H](C)[C@@]2(O)[C@@H](C=C(CO)C[C@]3(O)C(=O)C(C)=C[C@@H]23)[C@@H]2C(C)(C)[C@]12OC(C)=O [PMA, Phorbol 12-myristate 13-acetate, reference compound] |  |  |  |  |  |  |  |  |  |  |  | intracellular p24-positive live cells (flow cytometry quadrant) [5, 9]: 77.8; intracellular p24-positive live cells (flow cytometry quadrant) [6, 9]: 42.2
CC(=O)O[C@@]12C[C@@H](C)[C@@]3(O)[C@@H](C=C(CO)C[C@]4(O)C(=O)C(C)=C[C@@H]34)[C@@H]1C2(C)C [Prostratin, reference compound] | > 100 | > 100 | 0.33 | 0.32 | 4.99 | 68.7 | 76.7 | 0.333 | 33.5 | 40.7 | significant increase | LRA activity in the presence of 10% mouse serum versus 10% FBS (J-Lat 10.6 cells; GFP-positive cells): did not change; caspase-3 activation (U1 cells): 19.1%; caspase-3 activation (U937 cells): 18.8%
CCCCCCCCCC(=O)OCC1(CO)C/C(=C\CC(C(C)C)C(C)C)C(=O)O1 (centres unmarked) [YOK058E] | > 100 | > 100 | > 10 | 8.24 | 0.629 | 3.24 | 67.2 | 0.208 | 0.197 | 13.3 |  | 
